Like-named read-outs stand apart in the source and are kept apart here.
Key:
[1] = Interfacial energy from ln tind versus 1/T^3(ln S)^2 plot; assay type: physicochemical; details: CTAB 0.6 g kg^−1, 25 °C
Procedure: Interfacial energy at the solid–liquid interface, can typically be regarded as an intrinsic property of the system.[100] It is indeed a key parameter strongly influenced by the solvent composition and the presence of surfactants such as CTAB.[29,101] In this study, the effect of CTAB at a constant concentration of 0.6 g kg^−1 on the interfacial energy of the crystallization system of neomycin at various concentrations (20, 30, 40, and 50 g kg^−1) was investigated at a temperature of 25 °C. Key system parameters included the density of neomycin (ρ = 640 kg m^−3), measured using the volume displacement method; the shape factor (f = 0.058)[16,29] and the molar mass (M = 908.88 g mol^−1). […] At various concentrations of neomycin (20, 30, 40, and 50 g kg^−1), a comparison was made between the system stabilized with CTAB and previous studies that utilized PVP as a stabilizer.[29] […] This distinction can be attributed to a significant reduction in surface energy in the presence of CTAB, as well as distinct molecular interactions between neomycin and the cationic surfactant, which subsequently influenced solubility and nucleation behavior.[102] […] The proposed mechanism for this observation includes the effective adsorption of CTAB onto nanoparticle surfaces, alterations in the local solubility of neomycin, and the formation of stable electrical double layers at the interface.[103] Furthermore, increased agitation enhanced mass transfer, improved surfactant distribution, and promoted the formation of stable nuclei, ultimately leading to a significant reduction in surface energy and effective suppression of nanoparticle aggregation.[104]

[2] = parameters: method as in PMID 40028493; details: PVP as stabilizer, cited from earlier work
[3] = Critical nucleus radius calculated from classical nucleation theory (eqn S16); assay type: physicochemical; details: CTAB 0.6 g kg^−1, 25 °C
Source text: This study comprehensively investigated the influence of CTAB surfactant on neomycin crystallization. […] The supersaturation (S), as the primary driving force, directly affects the induction time, critical radius, growth rate, solubility, nanoparticle size, and nucleation mechanism.[33] CTAB operates through selective adsorption on crystalline surfaces, substantially influencing the nucleation pathway.[75,76] […] Quantitative data for these parameters are presented in Table 2, with the growth rate (intensity %) and nanoparticle size data being experimentally derived from DLS analysis.
As previously explored in relation to supersaturation, growth rate, and nanoparticle size (Fig. 16), the experimental results shown in Fig. 17 further illustrate the critical radius, growth kinetics, and nanoparticle size across varying supersaturation levels.[86] Based on data obtained from DLS analysis and critical radius calculations (eqn S16), it is observed that decreasing supersaturation leads to a significant increase in crystal growth rates, resulting in the formation of larger nanoparticles.[14–16,87] […] This phenomenon follows fundamental crystallization kinetics principles where, at high supersaturation levels, the elevated concentration of solute species leads to the formation of a greater number of primary nuclei.[89] Simultaneously, the distribution of solute molecules among these numerous nuclei results in decreased growth rates for crystals, ultimately producing smaller nanoparticles with a […] size distribution.[86] The role of the CTAB stabilizer in this system is particularly crucial. Through surface adsorption mechanisms, CTAB not only prevents nanoparticle aggregation but also precisely modulates growth kinetics, enabling better control over final particle dimensions.[90] These synergistic effects contribute to the formation of colloidally stable nanoparticles with uniform size distributions. An important observation is the direct correlation between nucleation duration and critical particle size, where extended nucleation times cause the formation of smaller particles.[91] Furthermore, dynamic parameters such as agitation rate and controlled shock pulses serve as effective tools for fine-tuning nanoparticle characteristics.[92]

[4] = initial neomycin 20 g kg solvent^−1
[5] = initial neomycin 30 g kg solvent^−1

Which “Interfacial energy this work” value [1, 4] does the source give for `NC[C@@H]1O[C@H](O[C@H]2[C@@H](O)[C@H](O[C@@H]3[C@@H](O)[C@H](N)C[C@H](N)[C@H]3O[C@H]3O[C@H](CN)[C@@H](O)[C@H](O)[C@H]3N)O[C@@H]2CO)[C@H](N)[C@@H](O)[C@@H]1O.O=S(=O)(O)O` [neomycin sulfate] here?
Its value is 1.33 mJ m^−2.

And the “Interfacial energy this work” value [1, 5]?
The value was 1.41 mJ m^−2.

And the “Interfacial energy this work” value ([1]; initial neomycin 40 g kg solvent^−1)?
Its value is 1.9 mJ m^−2.

And the “Interfacial energy this work” value ([1]; initial neomycin 50 g kg solvent^−1)?
The value was 2.14 mJ m^−2.

What about the “Interfacial energy, Motahari et al.” value [2, 4] of the same compound?
The value was 7.68 mJ m^−2.

And the “Interfacial energy, Motahari et al.” value [2, 5]?
Its value is 8.056 mJ m^−2.

And the Critical radius ([3]; 300 rpm, initial neomycin 20 g kg^−1, S 1.18)?
Its Critical radius is 1.689 nm.

What about the Critical radius ([3]; 300 rpm, initial neomycin 20 g kg^−1, S 1.21) of the same compound?
Its Critical radius is 1.467 nm.

And the Critical radius ([3]; 300 rpm, initial neomycin 20 g kg^−1, S 1.33)?
Its Critical radius is 0.981 nm.

And the Critical radius ([3]; 300 rpm, initial neomycin 20 g kg^−1, S 1.45)?
The Critical radius was 0.753 nm.

What about the Critical radius ([3]; 300 rpm, initial neomycin 20 g kg^−1, S 1.66) of the same compound?
The Critical radius was 0.552 nm.

What about the Critical radius ([3]; 350 rpm, initial neomycin 30 g kg^−1, S 1.2) of the same compound?
Its Critical radius is 1.534 nm.

And the Critical radius ([3]; 350 rpm, initial neomycin 30 g kg^−1, S 1.25)?
The Critical radius was 1.254 nm.

And the Critical radius ([3]; 350 rpm, initial neomycin 30 g kg^−1, S 1.28)?
The Critical radius was 1.133 nm.

What about the Critical radius ([3]; 350 rpm, initial neomycin 30 g kg^−1, S 1.43) of the same compound?
The Critical radius was 0.782 nm.

What about the Critical radius ([3]; 350 rpm, initial neomycin 30 g kg^−1, S 1.67) of the same compound?
The Critical radius was 0.545 nm.

And the Critical radius ([3]; 400 rpm, initial neomycin 40 g kg^−1, S 1.29)?
Its Critical radius is 1.099 nm.

What about the Critical radius ([3]; 400 rpm, initial neomycin 40 g kg^−1, S 1.379) of the same compound?
The Critical radius was 0.957 nm.

What about the Critical radius ([3]; 400 rpm, initial neomycin 40 g kg^−1, S 1.48) of the same compound?
The Critical radius was 0.714 nm.

And the Critical radius ([3]; 400 rpm, initial neomycin 40 g kg^−1, S 1.66)?
Its Critical radius is 0.552 nm.

What about the Critical radius ([3]; 400 rpm, initial neomycin 40 g kg^−1, S 1.9) of the same compound?
Its Critical radius is 0.436 nm.

What about the Critical radius ([3]; 450 rpm, initial neomycin 50 g kg^−1, S 1.351) of the same compound?
The Critical radius was 0.932 nm.

And the Critical radius ([3]; 450 rpm, initial neomycin 50 g kg^−1, S 1.408)?
The Critical radius was 0.817 nm.

And the Critical radius ([3]; 450 rpm, initial neomycin 50 g kg^−1, S 1.47)?
The Critical radius was 0.726 nm.

What about the Critical radius ([3]; 450 rpm, initial neomycin 50 g kg^−1, S 1.666) of the same compound?
The Critical radius was 0.548 nm.

What about the Critical radius ([3]; 450 rpm, initial neomycin 50 g kg^−1, S 1.785) of the same compound?
The Critical radius was 0.483 nm.

Source: article PMC12679610, “Impact of supersaturation on growth, critical radius, and size in neomycin nanoparticle crystallization using anti-solvent and CTAB” (RSC Advances, 2025)
